Measurements: PubChem BioAssay (NCI)
Several values for one entry are separate records, joined by “and”; a condition that tells them apart may be missing. Identical values can stand only once.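 Exposure lasted 48 hours, with cells grown in 96-well plates and compounds tested at five concentrations. GI50: concentration for 50% inhibition of growth. At the TGI there is no net growth.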

Tests used:
Assay in all cases: inhibition of tumour cell growth, NCI panel, 48 h
BT-549 breast = system: BT-549 breast
NCI-H522 lung = system: NCI-H522 lung
ACHN renal = system: ACHN renal
SF-539 CNS = system: SF-539 CNS
MDA-MB-435 = system: MDA-MB-435
K-562 leukemia = system: K-562 leukemia
OVCAR-8 ovarian = system: OVCAR-8 ovarian
SF-268 CNS = system: SF-268 CNS
MOLT-4 leukemia = system: MOLT-4 leukemia
NCI/ADR-RES ovarian = system: NCI/ADR-RES ovarian

SMILES	GI50 (BT-549 breast)	TGI (BT-549 breast)	GI50 (NCI-H522 lung)	GI50 (ACHN renal)	TGI (ACHN renal)	GI50 (SF-539 CNS)	TGI (SF-539 CNS)	GI50 (MDA-MB-435)	TGI (MDA-MB-435)	GI50 (K-562 leukemia)	TGI (K-562 leukemia)	GI50 (OVCAR-8 ovarian)	TGI (OVCAR-8 ovarian)	GI50 (SF-268 CNS)	TGI (SF-268 CNS)	GI50 (MOLT-4 leukemia)	TGI (MOLT-4 leukemia) [µM]	GI50 (NCI/ADR-RES ovarian)	TGI (NCI/ADR-RES ovarian)	TGI (NCI-H522 lung)
COC(=O)[C@@H](C)C[C@H](Cc1ccccc1)NC(=O)c1nc([C@@H](C[C@H](C(C)C)N(C)C(=O)[C@@H](NC(=O)[C@H]2CC(=O)CCN2C)C(C)C)OC(C)=O)sc1C(C)C	0.0971 µM	2.7 µM	0.0549 µM	0.794 µM	> 16.7 µM	0.345 µM	0.967 µM	0.0169 µM	0.0921 µM	0.0684 µM	> 16.7 µM	0.48 µM	> 16.7 µM	0.531 µM	> 16.7 µM	0.532 µM	> 16.7	4.11 µM	> 16.7 µM	–
CC1(C)CCC(c2ccc(Cl)cc2)=C(CN2CCN(c3ccc(C(=O)NS(=O)(=O)c4ccc(N[C@H](CCN5CCOCC5)CSc5ccccc5)c(S(=O)(=O)C(F)(F)F)c4)cc3)CC2)C1	1.96 µM	3.6 µM	1.89 µM	1.72 µM	3.14 µM	2.08 µM	4.22 µM	1.64 µM	3.17 µM	2.45 µM	8.02 µM	2.19 µM	5.18 µM	2.31 µM	5.55 µM	0.124 µM	–	3.2 µM	11.7 µM	5.03 µM
CCCCCCCCCCCCNC(=O)N[C@H](C(=O)N[C@H]1/C=C/OCCNC(=O)/C=C/[C@H](C(C)C)NC1=O)C(C)C	2.19 µM	33.6 µM	0.372 µM	51.3 µM	> 100 µM	2.49 µM	18.4 µM	1.48 µM	> 100 µM	9.15 µM	> 100 µM	13.7 µM	34.1 µM	7.99 µM	> 100 µM	3.26 µM	> 100	> 100 µM	> 100 µM	5.2 µM
CCN(CC)CCN1C(=O)c2cccc3cc(N)cc(c23)C1=O	–	40.4 µM	–	–	> 100 µM	–	20.4 µM	–	22.2 µM	–	44.2 µM	–	> 100 µM	–	> 100 µM	–	> 100	–	58.8 µM	21.8 µM
COc1ncc(-c2ccc3nc(N)n(-c4ccccc4C(F)(F)F)c(=O)c3c2)cc1S(=O)(=O)Nc1ccc(F)cc1F	1.57 µM	6.7 µM	3.04 µM	5.77 µM	> 100 µM	1.22 µM	20.4 µM	1.11 µM	4.28 µM	5.73 µM	> 100 µM	3.55 µM	> 100 µM	2.43 µM	> 100 µM	3.85 µM	56.1	1.94 µM	13.8 µM	24.5 µM
CC1(C)N=C(N)N=C(N)N1c1cccc(CC(=O)Nc2ccccc2)c1	45.1 µM	> 100 µM	47.5 µM	> 100 µM	> 100 µM	10.5 µM	> 100 µM	4.38 µM	> 100 µM	2.87 µM	> 100 µM	76.8 µM	> 100 µM	1.35 µM	> 100 µM	25.2 µM	> 100	> 100 µM	> 100 µM	> 100 µM
CC(=O)O[C@@H]1[C@H]2O[C@H]2[C@H]2O[C@@]2(COC(=O)c2ccccc2)[C@H]1OC(C)=O	–	> 100 µM	–	–	> 100 µM	–	> 100 µM	–	> 100 µM	–	> 100 µM	–	> 100 µM	–	> 100 µM	–	> 100	–	> 100 µM	> 100 µM
C=C(C)[C@@H]1CC[C@]2(C(=O)OC)CC[C@]3(C)[C@H](CC[C@@H]4[C@@]5(C)CC/C(=N\OCCC(=NCCC#N)NOCCC#N)C(C)(C)[C@@H]5CC[C@]43C)[C@@H]12	11.3 µM	> 50 µM	8.34 µM	10.5 µM	> 50 µM	11 µM	> 50 µM	9.7 µM	> 50 µM	2.23 µM	> 50 µM	9.66 µM	> 50 µM	11.4 µM	> 50 µM	2.52 µM	13	13.5 µM	> 50 µM	> 50 µM
Nc1c2ccccc2nc2ccccc12	4.04 µM and 5.12 µM	15.4 µM and 26.2 µM	1.15 µM and 3.03 µM	0.669 µM and 1.89 µM	8.61 µM and 7.19 µM	2.56 µM and 4.87 µM	7.93 µM and 16.2 µM	2.23 µM and 3.46 µM	6.32 µM and 13.7 µM	3.16 µM and 3.06 µM	12.5 µM and 25.1 µM	0.626 µM and 3.53 µM	5.14 µM and 34.3 µM	1.63 µM and 3.47 µM	4.45 µM and 19.7 µM	1.68 µM and 2.21 µM	11.1	1.44 µM and 1.48 µM	5.35 µM and 6.21 µM	2.63 µM and 10.1 µM
CN(C)CCCn1c2c(c3ccc(N4CCNCC4)cc3c1=O)C(=O)c1ccccc1-2	1.27 µM	2.77 µM	0.96 µM	0.392 µM	2.63 µM	1.61 µM	3.16 µM	1.2 µM	2.67 µM	0.833 µM	2.55 µM	0.403 µM	1.99 µM	0.95 µM	2.72 µM	0.0979 µM	0.922	1.16 µM	2.83 µM	2.55 µM
FC(F)(F)c1ccc(-c2cnc(-c3nn[nH]n3)nc2NC2CCCCCC2)cc1	> 10 µM	> 10 µM	> 10 µM	> 10 µM	> 10 µM	> 10 µM	> 10 µM	> 10 µM	> 10 µM	> 10 µM	> 10 µM	> 10 µM	> 10 µM	> 10 µM	> 10 µM	> 10 µM	> 10	> 10 µM	> 10 µM	> 10 µM
N#CSc1c[nH]c2cccc(/C=C/C(=O)/C=C(O)/C=C/c3cccc4[nH]cc(SC#N)c34)c12	0.5 µM	1.63 µM	0.093 µM	0.351 µM	1.04 µM	0.559 µM	1.36 µM	0.542 µM	1.42 µM	0.148 µM	> 33.3 µM	0.369 µM	> 17.5 µM	0.528 µM	1.86 µM	0.322 µM	1.48	2.72 µM	> 33.3 µM	0.47 µM
CC(=O)Nc1ccc(S(=O)(=O)N2C(=O)CCC2C(=O)Nc2ccccc2)cc1 (stereo not drawn)	1.57 µM	14.6 µM	0.491 µM	0.241 µM	14.3 µM	0.542 µM	4.4 µM	0.582 µM	17.3 µM	0.258 µM	10.2 µM	2.23 µM	19 µM	3.82 µM	23.3 µM	1.96 µM	14.5	1.61 µM	29.1 µM	6.27 µM
COc1cc(F)c(F)c(F)c1C(=O)c1cnc(NC2CCN(S(C)(=O)=O)CC2)nc1N	3.23 µM	8.35 µM	5.56 µM	0.906 µM	> 25 µM	1.24 µM	6.06 µM	0.782 µM	7.18 µM	4.78 µM	> 25 µM	2.28 µM	> 25 µM	2.78 µM	> 18.9 µM	0.845 µM	11.4	5.16 µM	> 25 µM	15.6 µM
